Experimental data as given in US8293781B2, “Indole derivatives having cPLA2 inhibiting activity and applications and production methods of the same” (Daiichi Sankyo Company, Limited, priority 2007, dated 2012).
Where a name gives a salt, the structure may show the parent alone.

Columns and labels:
[1] = target: T1, cPLA2 crudely purified from the cytoplasm fraction of U937 (Homo sapiens, UniProt P47712); test: Measurement of cPLA2 inhibitory activity (release of [14C]-arachidonic acid from phosphatidyl choline liposome); type: biochemical; conditions: cPLA2 from U937 cytoplasm fraction, [14C]arachidonyl-phosphatidyl choline liposome, 37° C., 60 minutes; read-out: cPLA2 inhibitory activity, 50% inhibiting concentration IC50
T1 construct: cPLA2 crudely purified from the cytoplasm fraction of U937; endogenous in cells; host or cells: U937 cells (cytoplasm fraction, crude purification)
T1 sequence (P47712 1-749): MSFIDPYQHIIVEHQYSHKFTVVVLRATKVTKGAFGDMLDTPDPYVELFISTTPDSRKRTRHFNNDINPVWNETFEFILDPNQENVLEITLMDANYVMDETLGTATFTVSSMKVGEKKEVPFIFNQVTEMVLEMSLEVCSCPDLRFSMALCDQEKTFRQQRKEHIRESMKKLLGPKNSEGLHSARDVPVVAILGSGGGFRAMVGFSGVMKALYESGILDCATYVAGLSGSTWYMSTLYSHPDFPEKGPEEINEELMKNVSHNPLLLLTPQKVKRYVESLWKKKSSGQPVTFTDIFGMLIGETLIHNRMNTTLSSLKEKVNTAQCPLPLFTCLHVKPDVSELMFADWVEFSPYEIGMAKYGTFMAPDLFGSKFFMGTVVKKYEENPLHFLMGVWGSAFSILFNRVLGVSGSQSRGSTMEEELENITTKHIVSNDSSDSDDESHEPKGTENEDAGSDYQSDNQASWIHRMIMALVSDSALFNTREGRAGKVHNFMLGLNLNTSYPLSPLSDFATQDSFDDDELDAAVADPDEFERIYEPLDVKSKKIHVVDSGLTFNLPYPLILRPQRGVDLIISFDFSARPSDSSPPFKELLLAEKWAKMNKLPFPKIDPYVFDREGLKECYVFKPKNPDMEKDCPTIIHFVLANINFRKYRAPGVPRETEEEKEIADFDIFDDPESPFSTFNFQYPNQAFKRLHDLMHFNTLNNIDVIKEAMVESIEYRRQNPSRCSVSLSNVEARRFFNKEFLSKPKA
Method in brief: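 The read-out is radioactivity from extracted [14C]-arachidonic acid, freed over 60 min at 37° C from liposomes of 14C-arachidonyl phosphatidylcholine (10 μM PC in the added solution). Buffer was 50 mM HEPES pH 7.5 with Ca2+, DTT, NaCl and BSA. IC50 was derived from inhibition relative to enzyme control minus no-enzyme control.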

[2] = system: PGE2 production in mouse peritoneal exudate cells; test: LPS-induced PGE2 production system using mouse peritoneal exudate cells; type: cell-based; conditions: LPS 10 μg/ml, 6 hours
Experimental: For evaluation of the PGE2 production inhibiting activity, the lipopolysaccharide (LPS)-induced PGE2 production system using mouse peritoneal exudate cells with reference to the method of Kim et al. (see Kim, Y K et al., Biol Pharm Bull 25: 472, 2002) was used. That is, 2 ml of thioglycolate solution (made by Sigma, Brewer's Thioglycorate medium) per mice were intraperitoneally administered to 8-week old female C3H/HeN mice (Charles River Japan). After 4 days, a phosphate buffer saline (PBS) 5 ml was used to wash the abdominal cavity and the infiltrating cells were recovered. The recovered cells were suspended in a predetermined concentration in an RPMI1640 medium (Nacalai Tesque) containing 10% bovine fetal serum (BioWhittaker) and 10 μg/ml gentamycin (Invitrogen).
The infiltrating cell suspension 100 μl containing 2×10^5 cells per well was inoculated in a 96-well culture plate, then the test compound solution or solvent 50 μl was added. Under conditions of 5% CO2 and 37° C., this was precultured for 15 minutes, then LPS (made by Sigma: L-4524) solution 50 μl (final concentration of LPS of 10 μg/ml) was added, and the mixture was cultured for a further 6 hours. After the end of the culture, the culture supernatant was recovered and the PGE2 concentration in the supernatant was measured using an EIA kit (made by Amersham). Based on the measurement value, the test compound concentration suppressing 50% of the PGE2 production at the time of non-addition of a compound (IC50 value) was calculated.

[3] = system: PGD2 production in rat mast cell like cell line RBL-2H3; test: Antigen-induced PGD2 production system using RBL-2H3 sensitized by DNP specific IgE; type: cell-based; conditions: 0.5 h, RBL-2H3, anti-DNP-IgE sensitized, antigen 10 μg/ml, 30 minutes
Experimental: To evaluate the PGD2 production inhibiting activity, the antigen-induced PGD2 production system using rat mast cell like cell line RBL-2H3 sensitized by a dinitrophenol (DNP) specific IgE with reference to the method of Yamashita et al. (see Yamashita, M. et al., Br J Pharmacol 129: 367, 2000) was used. That is, rat mast cell like cell line RBL-2H3 cells were suspended in a Dulbecco's modified Eagle's medium (Nacalai Tesque) containing 10% bovine fetal serum (BioWhittaker) and 10 μg/ml gentamycin (Invitrogen). The infiltrating cell suspension 200 μl containing 1×10^5 cells per well was inoculated to 96-well culture plate and cultured over night under conditions of 5% CO2 and 37° C. The culture supernatant was removed, then the suspension was cultured for 2 hours in the presence of an anti-DNP-IgE antibody (1 μg/ml) for 2 hours to sensitize it. After the sensitization, the supernatant was removed and the test compound solution or solvent was added. The resultant product was precultured for 30 minutes, then 10 μg/ml of antigen (DNP-human serum albumin conjugate) was added to elicite PGD2 production.
30 minutes after antigen stimulus, the culture supernatant was recovered and the amount of PGD2 in the supernatant was measured using an EIA kit (made by Cayman). Based on the measurement value, the test compound concentration (IC50 value) suppressing the amount of PGD2 production at the time of nonaddition of the compound by 50% was calculated.

[4] = system: Cys-LTs production in rat mast cell like cell line RBL-2H3; test: Calcium ionophore-induced Cys-LTs production system using RBL-2H3; type: cell-based; conditions: 1 h, RBL-2H3, A23187 5 μM, one hour
Experimental: (§1) For the evaluation by LTB4 and Cys-LTs production inhibiting activity, the calcium ionophore-induced LTB4 and Cys-LTs production system using the rat mast cell like cell line RBL-2H3 with reference to the method of Ishiwara et al. (see Ishiwara M. et al., J Pharmacol Exp Ther 307: 583, 2003) was used. That is, rat mast cell like cell line RBL-2H3 cells were suspended in Dulbecco's modified Eagle's medium (Nacalai Tesque) containing 10% bovine fetal serum (BioWhittaker) and 10 μg/ml gentamycin (Invitrogen). The infiltrating cell suspension 200 μl containing 1×10^5 cells per well was inoculated to 96-well culture plate and cultured over night under conditions of 5% CO2 and 37° C. The culture supernatant was removed, then the test compound solution or solvent 50 μl was added. After 30 minutes preculture, calcium ionophore (A23187) was added to a final concentration of 5 μM to induce leukotriene production.
(§2) One hour after calcium ionophore stimulus, the culture supernatant was recovered and the amounts of LTB4 and Cys-LTs in the supernatant were measured using an EIA kit (made by Amersham). Based on the measurement values, the test compound concentrations suppressing 50% of the mediator production at the time of non-addition of a compound (IC50 value) were calculated.

[5] = system: LTB4 production in rat mast cell like cell line RBL-2H3; test: Calcium ionophore-induced LTB4 production system using RBL-2H3; type: cell-based; conditions: 1 h, RBL-2H3, A23187 5 μM, one hour
Experimental: as §1, §2

[6] = system: TPA-induced mouse dermatitis model; test: TPA-induced mouse dermatitis model (ear thickness); type: in vivo; conditions: 50 mg/kg orally 30 minutes before TPA, 6 hours after TPA, C57BL/6 mice
Experimental: Phorbol ester (TPA) was applied to the ear to elicite acute inflammation having ear edema as a main symptom. In the present test model, it is known that arachidonic acid metabolites, constituting various lipid mediators, are involved in inflammation. By this Experiment, it is possible to evaluate the anti-inflammatory action in vivo of anti-inflammatory drugs acting on the arachidonic acid cascade.
The Experiment was performed with reference to the method of Chang et al. (see Chang J., Eur J Pharmacol 142: 197, 1987). That is, the ear of female C57BL/6 mice (Charles River Japan) were painted with 20 μl of TPA in an acetone solution (concentration 50 μg/ml) to induce dermatitis at the ear. The ear thicknesses before application of TPA and 6 hours after application of TPA were measured using a dial gauge and the increase in ear thickness caused by inflammation was calculated. The test compound or the 0.5% hydroxypropyl cellulose solution as vehicle was administered orally to the mice 30 minutes before application of TPA. Note that the number of mice used in the test was made six per group.
Based on the measurement value, the action of each test compound in suppressing the increase in ear thickness due to application of TPA was evaluated.

Structure (SMILES)	IC50 [1] [nM]	IC50 [2] [nM]	further results
O=C(O)CCc1ccc2c(c1)c(CCc1ccccc1)cn2-c1ccccc1 [Example 17, 3-[1-phenyl-3-(2-phenylethyl)-1H-indol-5-yl]propanoic acid 2-amino-2-(hydroxymethyl)propane-1,3-diol salt (1:1)]	38	1320	
Cc1c(CCc2ccccc2)c2cc(CCC(=O)O)ccc2n1-c1ccccc1 [Example 48, 3-[2-methyl-1-phenyl-3-(2-phenylethyl)-1H-indol-5-yl]propanoic acid]	126	2490	
CCOc1ccc(-n2cc(CCc3ccccc3)c3cc(CCC(=O)C(F)(F)F)ccc32)cc1 [Example 114, 4-[1-(4-ethoxyphenyl)-3-(2-phenylethyl)-1H-indol-5-yl]-1,1,1-trifluorobutan-2-one]	740	2220	
CCOc1ccc(-n2cc(CCc3ccccc3)c3cc(CCC(=O)NC#N)ccc32)cc1 [Example 115, N-cyano-3-[1-(4-ethoxyphenyl)-3-(2-phenylethyl)-1H-indol-5-yl]propanamide]	61	300	
O=C(O)CCc1ccc2c(c1)c(CCc1ccccc1)cn2-c1ccc(OCc2ccccc2)cc1 [Example 124, 3-{1-[4-(benzyloxy)phenyl]-3-(2-phenylethyl)-1H-indol-5-yl}propanoic acid 2-amino-2-(hydroxymethyl)propane-1,3-diol salt (1:1)]	8	130	
O=C(O)CCc1ccc2c(c1)c(CCc1ccccc1)cn2-c1cccnc1 [Example 128, 3-[3-(2-phenylethyl)-1-(3-pyridinyl)-1H-indol-5-yl]propanoic acid hydrochloride]	250	6430	
CN(C)c1ccc(-n2cc(CCc3ccccc3)c3cc(CCC(=O)O)ccc32)nc1 [Example 138, 3-{1-[5-(dimethylamino)-2-pyridinyl]-3-(2-phenylethyl)-1H-indol-5-yl}propanoic acid hydrochloride]	34	580	
O=C(O)CCc1ccc2c(c1)c(CCc1ccccc1)cn2-c1ccccc1O [Example 147, 3-[1-(2-hydroxyphenyl)-3-(2-phenylethyl)-1H-indol-5-yl]propanoic acid]	779	1240	
O=C(O)CCc1ccc2c(c1)c(CCc1ccccc1)cn2-c1cccc(O)c1 [Example 157, 3-[1-(3-hydroxyphenyl)-3-(2-phenylethyl)-1H-indol-5-yl]propanoic acid]	186	2250	
O=C(O)CCc1ccc2c(c1)c(CCc1ccccc1)cn2-c1ccc(OC(F)(F)F)cc1 [Example 193, 3-{3-(2-phenylethyl)-1-[4-(trifluoromethoxy)phenyl]-1H-indol-5-yl}propanoic acid 2-amino-2-(hydroxymethyl)propane-1,3-diol salt (1:1)]	141		IC50 [3]: 820 nM; IC50 [4]: 1380 nM; IC50 [5]: 630 nM; Suppression rate of increase in ear thickness [6]: 19.4%
Cc1ccc(S(=O)(=O)NC(=O)CCc2ccc3c(c2)c(CCc2ccccc2)cn3-c2ccc(Oc3ccccc3)cc2)cc1 [Example 333]	> 3000		
CSc1ccc(-n2cc(CCc3ccccc3)c3cc(CCC(=O)O)ccc32)cc1 [Example 334, 3-[1-(4-methylthiophenyl)-3-(2-phenylethyl)-1H-indol-5-yl]propanoic acid]	11		
O=C(O)CCc1ccc2c(c1)c(CCc1ccccc1)cn2-c1ccc(SCc2ccccc2)cc1 [Example 335, 3-[1-(4-benzylthiophenyl)-3-(2-phenylethyl)-1H-indol-5-yl]propanoic acid]	9		
O=C(O)CCc1ccc2c(c1)c(CCCc1ccccc1)cn2-c1ccc(OCc2ccccc2)cc1 [Example 339, 3-{1-[4-(benzyloxy)phenyl]-3-(3-phenylpropyl)-1H-indol-5-yl}propanoic acid]	460		
O=C(O)CCc1ccc2c(c1)c(CCCc1ccccc1)cn2-c1ccc(O)cc1 [Example 340, 3-[1-(4-hydroxyphenyl)-3-(3-phenylpropyl)-1H-indol-5-yl]propanoic acid]	568		
O=C(O)CCc1ccc2c(c1)c(CCc1ccccc1)cn2-c1ccc(OCCOCc2ccccc2)cc1 [Example 342, 3-[1-{4-[2-(benzyloxy)ethoxy]phenyl}-3-(2-phenylethyl)-1H-indol-5-yl]propanoic acid]	2		
